Data set [1] is described as follows: Pharmacokinetic study in chimps after oral and intravenous co-dosing: unmetabolized compound in urine. The format is in vivo. Conditions: both sexes, chimpanzee, 50 mg of each compound co-administered, average of chimps, urine collected 24 hours post-dose, read-out: Unmetabolized Compound Found in Urine. On the procedure: (§1) A 1:1 mixture of the two compounds was then prepared containing a final concentration of 1 mg/mL of each compound and the mixture was then sterile filtered through a 0.2-μm filter.
(§2) Two chimps (one male and one female) were used in each of the oral and intravenous studies. Animals were fasted overnight prior to administration of compounds. All animals were sedated with ketamine (approximately 10 mg/kg) and/or telazol (approximately 5 mg/kg) prior to dosing. Intravenous administration was achieved by IV infusion of 50 mg of each compound (50 mL total dosing solution) over 30 minutes. Oral administration was achieved by oral gavage of a single 50 mg dose of each compound (50 mL total dosing solution). Blood samples (4.5 mL) were collected from the dosed chimps at various times prior to and after dosing.
Urine was collected for 24 hours post-dose for each test animal and stored on ice. Total volume was measured and an aliquot was stored at −70° C. until further analysis
(§3) Samples were analyzed by LC-MS/MS using an Applied Bio-systems API 4000 mass spectrometer.

A short description of data set [2]: Pharmacokinetic study in chimps after oral and intravenous co-dosing: plasma levels by LC-MS/MS. The class given is in vivo. The settings on record: for Cmax / AUC(0-t): plasma, 50 mg, co-administered 1:1; for AUC(0-t): read-out: AUC(0-24). On the procedure: as §1
as §2, with “after dosing. For intravenous administrations blood samples were collected at 0 min (preinfusion), 15 min, 29.5 min (immediately before the end of the infusion), then 6, 15, 30 and 45 min, and 1, 2, 4, 6, 8, 10, 12 and 24 hr after the infusion is stopped. For oral administrations, blood samples were collected at 0 min (predose), 15 and 30 min, and 1, 1.5, 2, 4, 6, 8, 10 and 12 hr postdose.” for “after dosing.”
Blood samples were placed in tubes containing sodium heparin, mixed and stored on ice until centrifuged. Within 30 minutes of collection, plasma was isolated by centrifuging the blood samples and dividing the resulting plasma (approx. 2 ml) between two 96-deepwell plates. Each plate was sealed and stored at −70° C. until further analysis by LC-MS/MS using an Applied Bio-systems API 4000 mass spectrometer.
as §3

[3] abbreviates: following either intravenous or oral administration to chimps.
Setting [4] is: iv, Chimp 1, IV infusion 50 mg of each compound over 30 min.
Where [5] appears, read: iv, Chimp 2, IV infusion 50 mg of each compound over 30 min.
The mark [6] stands for this setting: po, Chimp 3, PO gavage single 50 mg dose of each compound.
[7] abbreviates: po, Chimp 4, PO gavage single 50 mg dose of each compound.

Read-outs that look alike come from different tables or passages of the source.

`[2H]C([2H])([2H])OC[C@@H](NC(=O)C([2H])([2H])[2H])C(=O)NCc1ccccc1` [Compound 120, (R)-2-(Acetamido-d3)—N-benzyl-3-(methoxy-d3)propanamide]: the results for the concentration at 24 h in data set [1] (IV) and in data set [1] (PO) were 11000 ng/mL and 3200 ng/mL, respectively. For the same compound, the “AUC compared with lacosamide” value in data set [2] (setting [3]) is reported as “higher”. Besides, the “Cmax compared with lacosamide” value in data set [2] (setting [3]) is given as “higher”. Further, the Cmax in data set [2] (setting [4]) was 5280 ng/mL; in data set [2] (setting [5]) it was 1690 ng/mL; in data set [2] (setting [6]) it was 1540 ng/mL; in data set [2] (setting [7]), 1180 ng/mL. Moreover, the AUC(0-t) is 31300 ng·h/mL in data set [2] (setting [4]), 25400 ng·h/mL in data set [2] (setting [5]), 23100 ng·h/mL in data set [2] (setting [6]) and 18000 ng·h/mL in data set [2] (setting [7]).

As to `COC[C@@H](NC(C)=O)C(=O)NCc1ccccc1` [Lacosamide, 2(R)-acetamido-N-benzyl-3-methoxypropionamide, reference compound], the concentration at 24 h is 9520 ng/mL in data set [1] (IV) and 2720 ng/mL in data set [1] (PO). Besides, the Cmax turned out to be 4770 ng/mL in data set [2] (setting [4]), 1560 ng/mL in data set [2] (setting [5]), 1370 ng/mL in data set [2] (setting [6]) and 1090 ng/mL in data set [2] (setting [7]). For the same compound, the AUC(0-t) came out at 27600 ng·h/mL in data set [2] (setting [4]), 23000 ng·h/mL in data set [2] (setting [5]), 20400 ng·h/mL in data set [2] (setting [6]) and 15900 ng·h/mL in data set [2] (setting [7]).

As a reminder, the Cmax is the maximum level reached in the sampled fluid or tissue.

The values above are taken from patent publication US9108902B2, “Deuterated 2-amino-3-hydroxypropanoic acid derivatives” (Concert Pharmaceuticals, Inc., priority 2008, dated 2015).
